Values of other authors as cited in paper PMC10780633, “Novel Multi-Target Agents Based on the Privileged Structure of 4-Hydroxy-2-quinolinone” (Molecules, 2023).

Design: method as in PMID 16955399, PMID 26834836
Details: more potent than linomide; cited from earlier work

SMILES: COc1cccc2c1c(O)c(C(=O)N(C)c1ccc(C(F)(F)F)cc1)c(=O)n2C [Tasquinimod]
- Anti-tumor potency relative to linomide: 30–60 times
